No end group written: not given here.
system: rat spinal motor neurons; assay: in vitro rat motor neuron cell survival assay; type: cell-based; settings: 10 μg/mL peptide, medium lacking NTFs; surviving motor neurons as percentage of those surviving with NTFs alone (control); mean ± SD of five samples
Procedure: FIG. 1. Illustrates a survival assay of exemplary MNTF peptides on motor neuron survival. Motor neurons were cultured from rat spinal cords and grown in culture for 3 days in the presence of BDNF, GDNF and CNTF. After 3 days, the cells were grown in the absence of the conventional trophic factors but with the indicated MNTF peptides at 10 microgram/ml. After 48 hours the number of live cells was determined. The graph indicates mean+/−SD of five samples (BDNF=Brain derived neurotrophic factor; GDNF=Glial derived neurotrophic factor; CNTF=Ciliary neurotrophic factor).
Purification and culture of motor neurons. Spinal motor neuron cultures were prepared from E14.5 Sprague-Dawley rats (Charles River Labs). Briefly, dissected spinal cords were digested in 0.025% trypsin (Gibco) for 8 min at 37° C. The tissue was transferred to a solution containing L-15 medium (Gibco) supplemented with 2% horse serum (Gibco), insulin (5 μg/ml); putrescine (1×10^-4 M), conalbumin (100 μg/ml), sodium selenite (3×10^-8 M), progesterone (2×10^-8 M), glucose (3.6 mg/ml), penicillin (100 IU/ml), streptomycin (100 μg/ml), DNAse (100 μg/ml) and bovine serum albumin (BSA; 0.4%). […] The layered suspension was centrifuged at 830×g for 15 min. […] The motor neurons medium consists of neurobasal medium (Gibco) supplemented with B27 supplement (Gibco), glutamate (25 μM), 2-mercaptoethanol (25 μM) and 2% horse serum. The motor neurons were plated onto laminin-coated coverslips at a density of 3000 cells/coverslip unless otherwise stated. A cocktail of neurotrophic factors (NTFs: 1 ng/ml BDNF, 100 pg/ml GDNF, 10 ng/ml CNTF) was added at the time of cell seeding. After 24 h in culture, motor neurons were treated by addition of the different analogs diluted in motor neurons medium lacking NTFs.
Survival assay. Spinal motor neurons were prepared from E14.5 rat embryos as described. Cells were cultured in the presence of NTFs for 24 h and viability (VI) was estimated by counting the number of calcein AM-positive cells. For viability studies, motor neurons were cultured in the absence of NTFs with the addition of the analogs or GM6. The percentage of viable motor neurons was calculated by counting the number of neurons.
Statistical analysis. The number of surviving motor neurons for each treatment was expressed as a percentage of the number of motor neurons surviving in the presence of NTFs alone (control). Five dishes were used for each condition. Differences between treatments were analyzed for their statistical significance by one-way ANOVA with post hoc Tukey's testing.

Which “MN survival (% Ctrl)” value does the source give for “FSR [compound 2307, 3-mer MNTF peptide, metabolite of the 6mer]” here?
The value was 35.00 ± 5.28 % Ctrl.

Which “MN survival (% Ctrl)” value does the source give for “FSRY [compound 2308, 4-mer MNTF peptide, metabolite of the 6mer]” here?
Its value is 66.38 ± 5.86 % Ctrl.

Which “MN survival (% Ctrl)” value does the source give for “FSRYA [compound 2309, 5-mer MNTF peptide, metabolite of the 6mer]” here?
The value was 81.5 ± 4.50 % Ctrl.

Which “MN survival (% Ctrl)” value does the source give for “FSRYAR [GM6(GMP014), synthesized 6 amino acid peptide analog of MNTF]” here?
Its value is 94.02 ± 3.53 % Ctrl.

How did the “MN survival (% Ctrl)” value turn out when RYA [compound 3222, 3-mer MNTF peptide] was run?
Its value is 10.64 ± 1.72 % Ctrl.

Which “MN survival (% Ctrl)” value does the source give for “RYAR [compound 2311, 4-mer MNTF peptide, metabolite of the 6mer]” here?
Its value is 9.66 ± 2.50 % Ctrl.

SRY [compound 3221, 3-mer MNTF peptide] was tested. Which “MN survival (% Ctrl)” value did it give?
The value was 9.08 ± 2.32 % Ctrl.

“SRYA [compound 3223, 4-mer MNTF peptide]” was tested. Which “MN survival (% Ctrl)” value did it give?
The value was 15.46 ± 1.82 % Ctrl.

For “SRYAR [compound 2312, 5-mer MNTF peptide, metabolite of the 6mer]”, which “MN survival (% Ctrl)” value is on record?
The value was 12.02 ± 2.31 % Ctrl.

For “YAR [compound 2310, 3-mer MNTF peptide, metabolite of the 6mer]”, which “MN survival (% Ctrl)” value is on record?
Its value is 12.26 ± 1.70 % Ctrl.

same assay, conditions: 10 μg/ml, culture medium lacking the conventional NTFs

With “FSRYAR [GM6(GMP014), synthesized 6 amino acid peptide analog of MNTF]” as the substance, how does the “trophic effect on motor neuron cell death (in words)” value read?
Its value is “demonstrated protection from neuronal cell loss”.

same assay, conditions: 10 μg/ml, culture medium lacking the conventional NTFs; listed as GM6

With “FSRYAR [GM6(GMP014), synthesized 6 amino acid peptide analog of MNTF]” as the substance, how does the “trophic effect on motor neuron cell death (in words)” value read?
Its value is “demonstrated an attenuation of motor neuron cell death”.

Reference: US8846615B2, “MNTF peptides” (Genervon Biopharmaceuticals, LLC, priority 2008, dated 2014)
